These results are taken from patent US12091425B2 (AMGEN INC., priority 2016, dated 2024).

pIC50: −log10 of the molar value.

Assay [1] deals with OPM-2 human multiple myeloma cell line. Put plainly: Cell Viability Assay (OPM-2 10 FBS). The note with it: OPM-2 cells, CellTiter-Glo. The assay is classed as cell-based. The gist of the method: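 OPM-2 myeloma cells, 3000/well in medium with 10% FBS, exposed to serially diluted compounds for 16 h at 37° C./5% CO2. Viability read by CellTiter-Glo luminescence; IC50 from 4-parameter logistic fit.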

The target of assay [2] is T1, Mcl-1/Bim interaction, recombinant human Mcl-1 (171-327) (Homo sapiens, UniProt Q07820).
T1 construct: made in house
T1 sequence (Q07820 171-327): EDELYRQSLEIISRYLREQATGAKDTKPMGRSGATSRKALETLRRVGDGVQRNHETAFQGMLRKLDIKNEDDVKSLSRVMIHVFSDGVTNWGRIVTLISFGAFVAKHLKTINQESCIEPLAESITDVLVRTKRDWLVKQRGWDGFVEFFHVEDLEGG
Description: Cell free Mcl-1: Bim Affinity Assay (Mcl-1 HTRF). The assay is classed as binding. The gist of the method: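 Biotin-Bim(51-76) peptide, TR-FRET readout, overnight incubation; IC50 from duplicate competition curves, 4-parameter fit.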

The mark [3] stands for this setting: TR-FRET, 0.1 nM Mcl-1 (171-327), 0.05 nM biotin-Bim (51-76).
Where [4] appears, read: Homo sapiens, OPM-2, 16 h, 16 h.
Where [5] appears, read: cell free Mcl-1:Bim TR-FRET, recombinant human Mcl-1 (171-327).
Setting [6] is: Homo sapiens, OPM-2, 16 h, 16 h incubation.

As for `CNC(=O)[C@@H](OC)[C@@H]1/C=C/[C@@H]2CC[C@H]2CN2C[C@@]3(CCCc4cc(Cl)ccc43)COc3ccc(cc32)C(=O)NS(=O)(=O)[C@H](C)[C@@H](C)C1.CNC(=O)[C@H](OC)[C@@H]1/C=C/[C@@H]2CC[C@H]2CN2C[C@@]3(CCCc4cc(Cl)ccc43)COc3ccc(cc32)C(=O)NS(=O)(=O)[C@H](C)[C@@H](C)C1` (mixture of isomers) [Example 362], the negative logarithm of the IC50 (pIC50) in assay [1] (16 h) is 6.32; in assay [2] (setting [3]), 9.19.

In the case of `CO[C@H]1/C=C/C[C@H](CO)[C@@H](C)S(=O)(=O)NC(=O)c2ccc3c(c2)N(C[C@@H]2CC[C@H]21)C[C@@]1(CCCc2cc(Cl)ccc21)CO3` [Example 1, (1S,3′R,6′R,7′S,8′E,11′R,12′R)-6-chloro-11′-(hydroxymethyl)-7′-methoxy-12′-methyl-3,4-dihydro-2H,15′H-spiro[naphthalene-1,22′-[20]oxa[13]thia[1,14]diazatetracyclo[14.7.2.0^3,6.0^19,24]pentacosa [8,16,18,24]tetraen]-15′-one 13′,13′-dioxide], the pIC50 in assay [1] (setting [4]) was 6.59; in assay [2] (setting [3]), 9.47.

For the compound `C[C@@H]1C/C=C\[C@H](O)[C@@H]2CC[C@H]2CN2C[C@@]3(CCCc4cc(Cl)ccc43)COc3ccc(cc32)C(=O)NS(=O)(=O)N1C[C@@H]1CCCO1` (single isomer, unassigned) [Example 52], the pIC50 is 5.74 in assay [1] (setting [4]) and 8.41 in assay [2] (setting [3]).

As to `CC(C)CC1CC(C)C=CC(O)C2CCC2CN2CC3(CCCc4cc(Cl)ccc43)COc3ccc(cc32)C(=O)NS1(=O)=O` (single isomer, unassigned) [Example 482], the pIC50 in assay [1] (setting [4]) was 5.12; in assay [2] (setting [5]), 8.12.

As to `C[C@@H]1[C@@H](C)C/C=C/[C@H](OCC(=O)N2CCN(C)CC2)[C@@H]2CC[C@H]2CN2C[C@@]3(CCCc4cc(Cl)ccc43)COc3ccc(cc32)C(=O)NS1(=O)=O` [Example 316, (1S,3′R,6′R,7′S,8′E,11′S,12′R)-6-chloro-11′,12′-dimethyl-7′-(2-(4-methyl-1-piperazinyl)-2-oxoethoxy)-3,4-dihydro-2H,15′H-spiro[naphthalene-1,22′-[20]oxa[13]thia[1,14]diazatetracyclo[14.7.2.0^3,6.0^19,24]pentacosa [8,16,18,24]tetraen]-15′-one 13′,13′-dioxide], the pIC50 was 6.79 in assay [1] (setting [4]) and 10.01 in assay [2] (setting [3]).

`C[C@@H]1[C@@H](C)C/C=C/[C@H](OCCNS(C)(=O)=O)[C@@H]2CC[C@H]2CN2C[C@@]3(CCCc4cc(Cl)ccc43)COc3ccc(cc32)C(=O)NS1(=O)=O` [Example 735, N-(2-(((1S,3′R,6′R,7′S,8′E,11′S,12′R)-6-chloro-11′,12′-dimethyl-13′, 13′-dioxido-15′-oxo-3,4-dihydro-2H-spiro[naphthalene-1,22′-[20]oxa[13]thia[1,14]diazatetracyclo[14.7.2.0^3,6.0^19,24]pentacosa[8,16,18,24]tetraen]-7′-yl)oxy)ethyl)Methanesulfonamide]: the negative logarithm of the IC50 (pIC50) in assay [1] (setting [4]) is 6.69; in assay [2] (setting [5]) it was 9.17.

For the compound `COC(C)COC1C=CCC(C)C(C)S(=O)(=O)NC(=O)c2ccc3c(c2)N(CC2CCC21)CC1(CCCc2cc(Cl)ccc21)CO3` (mixture of isomers) [Example 519], the pIC50 is 6.47 in assay [1] (16 h) and 8.84 in assay [2] (setting [5]).

Turning to `CO[C@@H]1/C=C/[C@@H](C)[C@@H](C)CS(=O)(=O)NC(=O)c2ccc3c(c2)N(C[C@@H]2CC[C@H]21)C[C@@]1(CCCc2cc(Cl)ccc21)CO3` (single isomer, unassigned) [Example 1066], the pIC50 in assay [1] (setting [6]) was 4.82; in assay [2] (setting [3]), 7.75.

In the case of `C[C@@H]1[C@@H](C)C/C=C/C[C@H](O)[C@@H]2CC[C@H]2CN2C[C@@]3(CCCc4cc(Cl)ccc43)COc3ccc(cc32)C(=O)NS1(=O)=O` (single isomer, unassigned) [Example 555], the figures for the pIC50 in assay [1] (16 h) and in assay [2] (setting [5]) were 5.58 and 8.32, respectively.

On to `C[C@@H]1[C@@H](C)C/C=C/[C@H](OCC(=O)N2CCNC(=O)C2)[C@@H]2CC[C@H]2CN2C[C@@]3(CCCc4cc(Cl)ccc43)COc3ccc(cc32)C(=O)NS1(=O)=O` [Example 314, (1S,3′R,6′R,7′S,8′E,11′S,12′R)-6-chloro-11′,12′-dimethyl-7′-(2-oxo-2-(3-oxo-1-piperazinyl)ethoxy)-3,4-dihydro-2H,15′H-spiro[naphthalene-1,22′-[20]oxa[13]thia[1,14]diazatetracyclo[14.7.2.0^3,6.0^19,24]pentacosa [8,16,18,24]tetraen]-15′-one 13′,13′-dioxide], for which the results for the pIC50 in assay [1] (setting [4]) and in assay [2] (setting [3]) were 5.67 and 9.87, respectively.

On to `O=C1NS(=O)(=O)[C@@H]2CCCC[C@H]2CCC[C@H](O)[C@@H]2CC[C@H]2CN2C[C@@]3(CCCc4cc(Cl)ccc43)COc3ccc1cc32` (single isomer, unassigned) [Example 333], for which the figures for the pIC50 in assay [1] (16 h) and in assay [2] (setting [3]) were 5.46 and 9.02, respectively.

For `C[C@@H]1[C@@H](C)C/C=C/[C@H](OC[C@@H](C)O)[C@@H]2CC[C@H]2CN2C[C@@]3(CCCc4cc(Cl)ccc43)COc3ccc(cc32)C(=O)NS1(=O)=O` (single isomer, unassigned) [Example 527], the pIC50 is 7.19 in assay [1] (16 h) and 9.66 in assay [2] (setting [5]).

For `C[C@@H]1CC/C=C/[C@H](OCc2ncccn2)[C@@H]2CC[C@H]2CN2C[C@@]3(CCCc4cc(Cl)ccc43)COc3ccc(cc32)C(=O)NS1(=O)=O` [Example 956, (1S,3′R,6′R,7′S,8′E,12′R)-6-chloro-12′-methyl-7′-(2-pyrimidinylmethoxy)-3,4-dihydro-2H,15′H-spiro[naphthalene-1,22′-[20]oxa[13]thia[1,14]diazatetracyclo[14.7.2.0^3,6.0^19,24]pentacosa [8,16,18,24]tetraen]-15′-one 13′,13′-dioxide], the pIC50 in assay [1] (setting [6]) was 6.68; in assay [2] (setting [3]) it was 9.56.

For the compound `CN(C)S(=O)(=O)N1CCN(C(=O)CC[C@@H]2CC/C=C/[C@H](O)[C@@H]3CC[C@H]3CN3C[C@@]4(CCCc5cc(Cl)ccc54)COc4ccc(cc43)C(=O)NS2(=O)=O)CC1` (single isomer, unassigned) [Example 626], the pIC50 is 5.66 in assay [1] (16 h) and 9.52 in assay [2] (setting [5]).

As for `COC1C=CCCC(C(=O)N(C)C)S(=O)(=O)NC(=O)c2ccc3c(c2)N(CC2CCC21)CC1(CCCc2cc(Cl)ccc21)CO3` (single isomer, unassigned) [Example 453], the pIC50 is 4.68 in assay [1] (16 h) and 8.17 in assay [2] (setting [3]).

Consider `C[C@@H]1[C@@H](C)C/C=C/[C@H](OCCN2CCCCC2)[C@@H]2CC[C@H]2CN2C[C@@]3(CCCc4cc(Cl)ccc43)COc3ccc(cc32)C(=O)NS1(=O)=O` [Example 723, (1S,3′R,6′R,7′S,8′E,11′5,12′R)-6-chloro-11′,12′-dimethyl-7′-(2-(1-piperidinyl)ethoxy)-3,4-dihydro-2H,15′H-spiro[naphthalene-1,22′-[20]oxa[13]thia[1,14]diazatetracyclo[14.7.2.0^3,6.0^19,24]pentacosa [8,16,18,24]tetraen]-15′-one-13′, 13′-dioxide], for which the negative logarithm of the IC50 (pIC50) was 6.86 in assay [1] (setting [4]) and 9.31 in assay [2] (setting [5]).

`O=C1NS(=O)(=O)[C@H](C2CC2)CC/C=C/[C@H](O)[C@@H]2CC[C@H]2CN2C[C@@]3(CCCc4cc(Cl)ccc43)COc3ccc1cc32` (single isomer, unassigned) [Example 148]: the pIC50 was 6.34 in assay [1] (16 h) and 9.55 in assay [2] (setting [3]).

Regarding `C[C@@H]1[C@@H](C)C[C@H](CC(=O)N(C)C)/C=C/[C@@H]2CC[C@H]2CN2C[C@@]3(CCCc4cc(Cl)ccc43)COc3ccc(cc32)C(=O)NS1(=O)=O` [Example 1072, 2-((1S,3′R,6′S,7′E,9′R,11′S,12′R)-6-chloro-11′,12′-dimethyl-13′,13′-dioxido-15′-oxo-3,4-dihydro-2H-spiro[naphthalene-1,22′-[20]oxa[13]thia[1,14]diazatetracyclo[14.7.2.0^3,6.0^19,24]pentacosa [7,16,18,24]tetraen]-9′-yl)-N,N-dimethylacetamide], the pIC50 in assay [1] (setting [6]) is 5.82; in assay [2] (setting [3]), 8.87.

On to `CN(C)C(=O)CC[C@@H]1CC/C=C/[C@H](O)[C@@H]2CC[C@H]2CN2C[C@@]3(CCCc4cc(Cl)ccc43)COc3ccc(cc32)C(=O)NS1(=O)=O` (single isomer, unassigned) [Example 618], for which the values for the negative logarithm of the IC50 (pIC50) in assay [1] (16 h) and in assay [2] (setting [5]) were 6.22 and 9.76, respectively.

For the compound `COC[C@@H]1C[C@@H](C)/C=C/[C@H](OC)[C@@H]2CC[C@H]2CN2C[C@@]3(CCCc4cc(Cl)ccc43)COc3ccc(cc32)C(=O)NS1(=O)=O` (single isomer, unassigned) [Example 473], the values for the pIC50 in assay [1] (16 h) and in assay [2] (setting [5]) were 6.80 and 9.43, respectively.

As to `CCOC(=O)CO[C@H]1/C=C/CC[C@@H](CC(=O)OC)S(=O)(=O)NC(=O)c2ccc3c(c2)N(C[C@@H]2CC[C@H]21)C[C@@]1(CCCc2cc(Cl)ccc21)CO3` [Example 623], the values for the pIC50 in assay [1] (16 h) and in assay [2] (setting [5]) were 6.32 and 9.19, respectively.

With `CNC(=O)C[C@@H]1/C=C/[C@@H]2CC[C@H]2CN2C[C@@]3(CCCc4cc(Cl)ccc43)COc3ccc(cc32)C(=O)NS(=O)(=O)[C@H](C)[C@@H](C)C1` [Example 1073, 2-((1S,3′R,6′S,7′E,9′R,11′S,12′R)-6-chloro-11′,12′-dimethyl-13′,13′-dioxido-15′-oxo-3,4-dihydro-2H-spiro[naphthalene-1,22′-[20]oxa[13]thia[1,14]diazatetracyclo[14.7.2.0^3,6.0^19,24]pentacosa [7,16,18,24]tetraen]-9′-yl)-N-methylacetamide], the pIC50 in assay [1] (setting [6]) is 5.95; in assay [2] (setting [3]) it was 9.21.

`CC[C@@H]1CC/C=C/[C@H](O[C@H](C)C(=O)O)[C@@H]2CC[C@H]2CN2C[C@@]3(CCCc4cc(Cl)ccc43)COc3ccc(cc32)C(=O)NS1(=O)=O` [Example 1005]: the results for the pIC50 in assay [1] (16 h incubation) and in assay [2] (setting [3]) were 5.39 and 9.81, respectively.

One may read the pIC50 as the IC50 on a negative log10 scale, so that one unit is a factor of ten.
